# In ChEMBL document CHEMBL1201862, “PubChem BioAssay data set” (2004):
#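 Step 1: Grow cells in 96-well plates. Step 2: Expose to compound for 48 hours at 5 concentrations. Step 3: Interpolate endpoints linearly; if unreached, use highest concentration. At the GI50, growth is halved.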 Activity calls are given as the source filed them. Cut-off read from the data, not from the text of the source: active = GI50 up to about 1.1 µM and inactive = higher. Residues, ends and D or L forms follow the SMILES beside them.
# Columns and labels:
# Test in all cases: inhibition of tumour cell growth, NCI panel, 48 h
# ACHN = test system: ACHN
# CAKI-1 = test system: CAKI-1
# DU-145 = test system: DU-145
# HOP-62 = test system: HOP-62
# KM12 = test system: KM12
# MDA-MB-231 = test system: MDA-MB-231
# MDA-MB-435 = test system: MDA-MB-435
# MOLT-4 = test system: MOLT-4
# OVCAR-3 = test system: OVCAR-3
# OVCAR-4 = test system: OVCAR-4
# OVCAR-8 = test system: OVCAR-8
# PC-3 = test system: PC-3
# SK-MEL-28 = test system: SK-MEL-28
# SK-MEL-5 = test system: SK-MEL-5
# SN12C = test system: SN12C
# SNB-19 = test system: SNB-19
# SNB-75 = test system: SNB-75
# TK-10 = test system: TK-10
# U-251 = test system: U-251
# CCRF-CEM = test system: CCRF-CEM
SMILES,GI50 (ACHN),GI50 (CAKI-1),GI50 (DU-145),GI50 (HOP-62),GI50 (KM12),GI50 (MDA-MB-231),GI50 (MDA-MB-435),GI50 (MOLT-4),GI50 (OVCAR-3),GI50 (OVCAR-4),GI50 (OVCAR-8),GI50 (PC-3),GI50 (SK-MEL-28),GI50 (SK-MEL-5),GI50 (SN12C),GI50 (SNB-19),GI50 (SNB-75),GI50 (TK-10),GI50 (U-251),GI50 (CCRF-CEM)
C=CCNc1nc2c(s1)C(=O)c1ccccc1C2=O,7.62 µM (inactive),13.7 µM (inactive),18.6 µM (inactive),13.4 µM (inactive),13.8 µM (inactive),10 µM (inactive),1.91 µM (inactive),2.26 µM (inactive),12.1 µM (inactive),7.87 µM (inactive),3.73 µM (inactive),12.6 µM (inactive),9.71 µM (inactive),1.7 µM (inactive),11.6 µM (inactive),14.9 µM (inactive),18.7 µM (inactive),19.2 µM (inactive),7.55 µM (inactive),–
CC(=O)N1c2ccccc2C23CCN4CC5=CCOC(O)C(C5CC42)C13 (configuration not stated),> 100 µM (inactive),> 100 µM (inactive),> 100 µM (inactive),–,> 100 µM (inactive),> 100 µM (inactive),> 100 µM (inactive),> 100 µM (inactive),> 100 µM (inactive),> 100 µM (inactive),> 100 µM (inactive),> 100 µM (inactive),> 100 µM (inactive),> 100 µM (inactive),> 100 µM (inactive),> 100 µM (inactive),> 100 µM (inactive),> 100 µM (inactive),> 100 µM (inactive),> 100 µM (inactive)
CCC[C@@H](O)C[C@@H]1CCC[C@H](C[C@@H](O)CC)N1C,> 100 µM (inactive),> 100 µM (inactive),> 100 µM (inactive),> 100 µM (inactive),> 100 µM (inactive),> 100 µM (inactive),> 100 µM (inactive),> 100 µM (inactive),> 100 µM (inactive),> 100 µM (inactive),> 100 µM (inactive),> 100 µM (inactive),> 100 µM (inactive),> 100 µM (inactive),> 100 µM (inactive),> 100 µM (inactive),–,> 100 µM (inactive),> 100 µM (inactive),> 100 µM (inactive)
CCOC(=O)c1cc2cc(Cc3ccc4[nH]c(C(=O)OCC)cc4c3)ccc2[nH]1,14.5 µM (inactive),12 µM (inactive),31.3 µM (inactive),5.14 µM (inactive),23.7 µM (inactive),15.5 µM (inactive),27.2 µM (inactive),> 100 µM (inactive),73.6 µM (inactive),6.7 µM (inactive),5.94 µM (inactive),34.3 µM (inactive),29.4 µM (inactive),–,23.7 µM (inactive),13 µM (inactive),12.2 µM (inactive),13.9 µM (inactive),11.2 µM (inactive),57.5 µM (inactive)
COc1ccc(C(OCC2OC3(COC(c4ccccc4)(c4ccc(OC)cc4)c4ccc(OC)cc4)C(Oc4nc(=O)ccn43)C2O)(c2ccccc2)c2ccc(OC)cc2)cc1 (configuration not stated),> 100 µM (inactive),> 100 µM (inactive),> 100 µM (inactive),> 100 µM (inactive),> 100 µM (inactive),> 100 µM (inactive),> 100 µM (inactive),> 100 µM (inactive),> 100 µM (inactive),> 100 µM (inactive),> 100 µM (inactive),> 100 µM (inactive),> 100 µM (inactive),> 100 µM (inactive),> 100 µM (inactive),88.9 µM (inactive),–,> 100 µM (inactive),> 100 µM (inactive),> 100 µM (inactive)
CCOC1OC(COC(=O)C(C)(C)C)C(O)CC1n1cc(C)c(=O)[nH]c1=O (configuration not stated),> 100 µM (inactive),> 100 µM (inactive),> 100 µM (inactive),–,> 100 µM (inactive),> 100 µM (inactive),> 100 µM (inactive),–,> 100 µM (inactive),> 100 µM (inactive),> 100 µM (inactive),> 100 µM (inactive),> 100 µM (inactive),> 100 µM (inactive),> 100 µM (inactive),> 100 µM (inactive),> 100 µM (inactive),> 100 µM (inactive),> 100 µM (inactive),> 100 µM (inactive)
CCOC(=O)CCC(NC(=O)c1ccc(CNc2nc3cc(N)cc(N)c3nc2-c2ccccc2)cc1)C(=O)OCC (configuration not stated),> 100 µM (inactive),> 100 µM (inactive),> 89.3 µM (inactive),> 100 µM (inactive),> 85.7 µM (inactive),22.3 µM (inactive),43.1 µM (inactive),1.45 µM (inactive),27 µM (inactive),17.4 µM (inactive),> 100 µM (inactive),> 100 µM (inactive),28.2 µM (inactive),> 83 µM (inactive),> 61.5 µM (inactive),> 100 µM (inactive),> 100 µM (inactive),> 100 µM (inactive),> 100 µM (inactive),–
Cc1nc2ccc(S(=O)(=O)Nc3ccccc3Cl)cc2c(=O)n1NC(=O)CNc1ccccc1Cl,> 100 µM (inactive),> 100 µM (inactive),> 100 µM (inactive),> 100 µM (inactive),> 100 µM (inactive),> 100 µM (inactive),> 100 µM (inactive),> 100 µM (inactive),> 100 µM (inactive),> 100 µM (inactive),> 100 µM (inactive),> 100 µM (inactive),> 100 µM (inactive),–,> 100 µM (inactive),> 100 µM (inactive),> 100 µM (inactive),> 100 µM (inactive),> 100 µM (inactive),> 100 µM (inactive)
CCN(CC)CCNC(=O)c1cc2cc(NC(=O)c3cc4cc([N+](=O)[O-])ccc4[nH]3)ccc2[nH]1,35.1 µM (inactive),> 35.6 µM (inactive),14.2 µM (inactive),> 77.1 µM (inactive),1.71 µM (inactive),3.83 µM (inactive),37.5 µM (inactive),13 µM (inactive),> 40.6 µM (inactive),> 50.4 µM (inactive),2.99 µM (inactive),> 39 µM (inactive),25.2 µM (inactive),3.85 µM (inactive),> 65.2 µM (inactive),49.8 µM (inactive),4.89 µM (inactive),14.2 µM (inactive),1.84 µM (inactive),–
O=c1oc2cc(O)ccc2c(O)c1C(c1ccccc1F)c1c(O)c2ccc(O)cc2oc1=O,> 100 µM (inactive),> 100 µM (inactive),> 100 µM (inactive),> 100 µM (inactive),78.3 µM (inactive),95.7 µM (inactive),43.8 µM (inactive),45.8 µM (inactive),> 100 µM (inactive),–,56.4 µM (inactive),> 100 µM (inactive),52 µM (inactive),28.4 µM (inactive),> 100 µM (inactive),> 100 µM (inactive),> 100 µM (inactive),> 100 µM (inactive),42.3 µM (inactive),–
COc1cc([C@@H]2c3cc4c(cc3[C@@H](Nc3ccc(Cl)cc3C(=O)c3ccccc3)[C@H]3COC(=O)[C@H]23)OCO4)cc(OC)c1OC,0.592 µM (active),0.601 µM (active),0.428 µM (active),0.64 µM (active),0.258 µM (active),0.586 µM (active),0.242 µM (active),0.384 µM (active),0.324 µM (active),> 100 µM (inactive),0.359 µM (active),0.342 µM (active),0.372 µM (active),0.298 µM (active),0.518 µM (active),0.408 µM (active),–,> 100 µM (inactive),0.241 µM (active),0.37 µM (active)
CC(CC(C)[C@H]1CCC2[C@H]3C(CC(=O)[C@@]21C)[C@@]1(C)CCC(O)C[C@H]1C[C@@H]3O)C(=O)O (some centres not stated),> 100 µM (inactive),> 100 µM (inactive),> 100 µM (inactive),> 100 µM (inactive),> 100 µM (inactive),> 100 µM (inactive),> 100 µM (inactive),46.2 µM (inactive),–,> 100 µM (inactive),> 100 µM (inactive),> 100 µM (inactive),> 100 µM (inactive),–,> 100 µM (inactive),> 100 µM (inactive),> 100 µM (inactive),> 100 µM (inactive),> 100 µM (inactive),43.4 µM (inactive)
C=C1C(=O)OC2CC3(C)CCCC(C)C3=CC12 (configuration not stated),2.61 µM (inactive),3.09 µM (inactive),3.67 µM (inactive),–,12.6 µM (inactive),12.1 µM (inactive),2.94 µM (inactive),2.56 µM (inactive),–,4.03 µM (inactive),12.8 µM (inactive),14.8 µM (inactive),2.65 µM (inactive),1.55 µM (inactive),3.3 µM (inactive),13.1 µM (inactive),2.64 µM (inactive),2.46 µM (inactive),7 µM (inactive),1.21 µM (inactive)
CCC(C)C(NC(=O)C1CCCN1)C(=O)NC(C(=O)NCC(=O)NC(CC(N)=O)C(=O)NC(CC(C)C)C(=O)NC(CC(C)C)C(=O)NC(CCCCN)C(N)=O)C(C)C (configuration not stated) (H-PIVGNLLK-NH2; configuration not given here),> 75 µM (inactive),> 75 µM (inactive),> 75 µM (inactive),> 75 µM (inactive),> 75 µM (inactive),> 75 µM (inactive),> 75 µM (inactive),> 75 µM (inactive),> 75 µM (inactive),> 75 µM (inactive),> 75 µM (inactive),> 75 µM (inactive),> 75 µM (inactive),> 75 µM (inactive),> 75 µM (inactive),> 75 µM (inactive),–,> 75 µM (inactive),> 75 µM (inactive),> 75 µM (inactive)
